In ChEMBL document CHEMBL5226321, “Ivermectin: A Promising Therapeutic for Fighting Malaria. Current Status and Perspective” (J Med Chem, 2021):
Where “and” joins values, the source holds several entries; their conditions need not be identical. Identical values can stand only once.

Legend:
Aedes aegypti [1] = assay: Insecticidal in Aedes aegypti assessed as mortality rate fed with blood of compound treated mouse at 83 mg/kg, sc before 12 hrs and observed after 36 hrs relative to control; assay type: functional, organism-based
Anopheles arabiensis [2] = assay: Insecticidal in Anopheles arabiensis assessed as mortality observed within 48 hrs after ingestion relative to control; assay type: functional, organism-based
Aedes aegypti [3] = assay: Insecticidal in Aedes aegypti assessed as mortality rate membrane-fed with compound treated human blood at 10 to 100 microg/mL observed within 7 days relative to control; assay type: functional, organism-based; details: dose 10-100 µg/ml, time 7.0 day
Anopheles arabiensis [4] = assay: Insecticidal in Anopheles arabiensis assessed as reduction in fecundity fed with compound treated bovine blood at 200 microg/kg relative to control; assay type: functional, organism-based; set-up: scale not given: the % may be the effect or the level left; details: dose 200.0 µg/kg
Anopheles arabiensis [5] = assay: Insecticidal in Anopheles arabiensis assessed as reduction in number of eggs fed with compound treated bovine blood at 200 microg/kg relative to control; assay type: functional, organism-based; set-up: scale not given: the % may be the effect or the level left; details: dose 200.0 µg/kg
Anopheles sp. [6] = assay: Insecticidal in Anopheles sp. infected with Plasmodium falciparum gametocytes assessed as reduction in fecundity fed with compound treated bovine blood at 200 microg/kg feeding at 28 days after injection relative to control; assay type: functional, organism-based; set-up: scale not given: the % may be the effect or the level left; details: dose 200.0 µg/kg
Anopheles sp. [7] = assay: Insecticidal in Anopheles sp. assessed as mean plasma concentration fed with compound treated pig blood administered as a single dose at 600 microg/kg at 22 day post treatment; assay type: functional, organism-based; details: dose 600.0 µg/kg
Anopheles sp. [8] = assay: Insecticidal in Anopheles sp. assessed as mortality rate membrane-fed with blood of compound treated mouse at 600 microg/kg observed within 6 days relative to control; assay type: functional, organism-based; details: dose 600.0 µg/kg, time 6.0 day
Plasmodium vivax [9] = assay: Antimalarial activity against Plasmodium vivax assessed as sporogony lethality in Anopheles darlingi mosquito fed with blood isolated from compound treated parasite-infected human observed after 7 days by measuring reduction in parasite prevalence level at Lc50 relative to control; assay type: functional, organism-based; set-up: scale not given: the % may be the effect or the level left; details: time 7.0 day
Anopheles sp. [10] = assay: Insecticidal in Anopheles sp. assessed as mortality fed with compound treated pig blood at 600 microg/kg observed within 2 to 4 days feeding upto 8 days after drug administration relative to control; assay type: functional, organism-based; details: dose 600.0 µg/kg, time 2-4 day
Culex quinquefasciatus [11] = assay: Insecticidal in Culex quinquefasciatus assessed as mortality rate fed with blood of compound treated mouse at […], sc before 12 hrs and observed after 36 hrs relative to control; assay type: functional, organism-based
Anopheles sp. [12] = assay: Insecticidal in Anopheles sp. assessed as mortality fed with compound treated human blood at 400 microg/kg in the presence of 6 mg/kg diethylcarbamazine citrate observed in 24 hrs relative to control; assay type: functional, organism-based; details: dose 400.0 µg/kg
Anopheles sp. [13] = assay: Insecticidal in Anopheles sp. infected with Plasmodium falciparum gametocytes assessed as reduction in fecundity fed with compound treated bovine blood at 200 microg/kg feeding at 21 days after injection relative to control; assay type: functional, organism-based; set-up: scale not given: the % may be the effect or the level left; details: dose 200.0 µg/kg
Anopheles sp. [14] = assay: Insecticidal in Anopheles sp. infected with Plasmodium falciparum gametocytes assessed as mortality fed with compound treated bovine blood at 200 microg/kg observed within 2.87 days feeding at 2 days post treatment relative to control; assay type: functional, organism-based; details: dose 200.0 µg/kg, time 2.87 day
Anopheles gambiae [15] = assay: Insecticidal in Anopheles gambiae assessed as mortality fed with compound treated bovine blood at 600 microg/kg observed for 10 days; assay type: functional, organism-based; details: dose 600.0 µg/kg, time 10.0 day
Anopheles stephensi [16] = assay: Insecticidal in Anopheles stephensi assessed as mortality rate fed with blood of compound treated mouse at […], sc before 12 hrs and observed after 36 hrs relative to control; assay type: functional, organism-based
Anopheles minimus = assay: In vitro Insecticidal in Anopheles minimus assessed as lethality membrane-fed with compound treated human blood at 400 microg/kg per day in presence of combination of 120 mg dihydroartemisinin, 960 mg piperaquine and 30 mg primaquine observed after 7 days; assay type: functional, organism-based; details: dose 400.0 µg/kg, time 7.0 day
Plasmodium vivax [17] = assay: Antimalarial activity against Plasmodium vivax assessed as reduction in […] in Anopheles darlingi mosquito fed with blood containing plasma isolated from compound treated human observed after 4 days relative to control; assay type: functional, organism-based; details: time 4.0 day, dose or concentration not given here
Anopheles sp. [18] = assay: Insecticidal in Anopheles sp. assessed as egg hatching rate fed with compound treated human blood administered as a single dose at 10 microg/ml fed at 4 hrs post treatment; assay type: functional, organism-based; details: dose 10.0 µg/ml
Anopheles darlingi = assay: Insecticidal in Anopheles darlingi infected with Plasmodium vivax assessed as lethal concentration fed with compound treated human blood observed for 7 days; assay type: functional, organism-based; details: time 7.0 day
Anopheles arabiensis [19] = assay: Insecticidal in Anopheles arabiensis assessed as lethal concentration membrane-fed with compound treated bovine blood; assay type: functional
Anopheles sp. [20] = assay: Insecticidal in Anopheles sp. assessed as lethal concentration fed with compound treated human blood administered as a single dose at 10 microg/ml fed at 4 hrs post treatment; assay type: functional, organism-based; details: dose 10.0 µg/ml
Anopheles sp. [21] = assay: Insecticidal in Anopheles sp. infected with Plasmodium falciparum gametocytes assessed as reduction in survival fed with compound treated bovine blood at 200 microg/kg feeding at 28 days after injection relative to control; assay type: functional, organism-based; details: dose 200.0 µg/kg
Anopheles sp. [22] = assay: Insecticidal in Anopheles sp. assessed as mean plasma concentration causing death within 2-4 days fed with compound treated pig blood administered as a single dose at 600 microg/kg at 1 day post treatment observed within 2 to 4 days; assay type: functional, organism-based; details: dose 600.0 µg/kg, time 2-4 day, pooled result: one value given for 4 cell lines, strains, targets or settings
Anopheles sp. [23] = assay: Insecticidal in Anopheles sp. infected with Plasmodium falciparum gametocytes assessed as reduction in survival fed with compound treated bovine blood at 200 microg/kg feeding at 2 days after injection relative to control; assay type: functional, organism-based; details: dose 200.0 µg/kg
Anopheles arabiensis [24] = assay: Insecticidal in Anopheles arabiensis assessed as percentage of mortality in 10 day survivorship fed with compound treated bovine blood at 73 mg observed for 24 weeks relative to control; assay type: functional, organism-based
Anopheles sp. [25] = assay: Insecticidal in Anopheles sp. infected with Plasmodium falciparum gametocytes assessed as survival fed with compound treated bovine blood at 200 microg/kg feeding at 2 weeks after injection; assay type: functional, organism-based; details: dose 200.0 µg/kg
Plasmodium berghei = assay: In vivo antimalarial activity against liver stage Plasmodium berghei infected in mouse assessed as inhibition of liver infection at 10 mg/kg measured 44 to 46 hrs post-infection by bioluminescence assay relative to control; assay type: functional, organism-based; details: time 44-46 hrs
Culex quinquefasciatus [26] = assay: Insecticidal in Culex quinquefasciatus assessed as mortality rate membrane-fed with compound treated human blood at 10 to 100 microg/mL observed within 7 days relative to control; assay type: functional, organism-based; details: dose 10-100 µg/ml, time 7.0 day
Anopheles sp. [27] = assay: Insecticidal in Anopheles sp. assessed as mortality fed with compound treated human blood at 400 microg/kg in the presence of 6 mg/kg diethylcarbamazine citrate died in 9 days relative to control; assay type: functional, organism-based; details: dose 400.0 µg/kg, time 9.0 day
Aedes aegypti [28] = assay: Insecticidal in Aedes aegypti assessed as lethal concentration membrane-fed with compound treated blood; assay type: functional, organism-based
Anopheles gambiae [29] = assay: Insecticidal in Anopheles gambiae G3 assessed as reduction in survivorship fed with blood of compound treated human at 150 microg/kg administered once; assay type: functional, organism-based; details: dose 150.0 µg/kg
Anopheles stephensi [30] = assay: Insecticidal in Anopheles stephensi assessed as lethal concentration membrane-fed with compound treated blood; assay type: functional, organism-based
Anopheles arabiensis [31] = assay: Insecticidal in Anopheles arabiensis assessed as percentage of reduction in mortality in 3 day survivorship fed with compound treated bovine blood at 73 mg observed for 24 weeks relative to control; assay type: functional, organism-based
Aedes aegypti [32] = assay: Insecticidal in Aedes aegypti assessed as reduction in survivorship fed with blood of compound treated human at 150 microg/kg administered once; assay type: functional, organism-based; details: dose 150.0 µg/kg

IVERMECTIN was tested, and the mortality (Aedes aegypti [1]) was 60%, the mortality (Anopheles arabiensis [2]) was 95% and the mortality (Aedes aegypti [3]) was 100%. The Activity (Anopheles arabiensis [4]) was 79%, the Activity (Anopheles arabiensis [5]) was 82% and the Activity (Anopheles sp. [6]) was 20%. For the same sequence, the Cp (Anopheles sp. [7]) was 1.4 ng/mL, the mortality (Anopheles sp. [8]) was 44% and the Activity (Plasmodium vivax [9]) was 22.6% and 17.1%. For the same sequence, the mortality (Anopheles sp. [10]) was 100%, the mortality (Culex quinquefasciatus [11]) was 50% and the mortality (Anopheles sp. [12]) was 70%. The Activity (Anopheles sp. [13]) was 33%, the mortality (Anopheles sp. [14]) was 100% and the mortality (Anopheles gambiae [15]) was 90%. For the same sequence, the mortality (Anopheles stephensi [16]) was 100%, the LC50 (Anopheles minimus) was 0.0147 µg/mL and the inhibition (Plasmodium vivax [17]) was 99.9%. It also gave an Activity (Anopheles sp. [18]) of 74.8, an LC5 (Anopheles darlingi) of 14.8 ng/mL and an LC25 (Anopheles darlingi) of 0.0278 µg/mL. It also gave an LC50 (Anopheles darlingi) of 0.0432 µg/mL, an LC50 (Anopheles arabiensis [19]) of 7.79 ppb and an LC5 (Anopheles sp. [20]) of 18.3 ng/mL. For the same sequence, the Survival (Anopheles sp. [21]) was 23%, the Cp (Anopheles sp. [22]) was 15.3 ng/mL and the Survival (Anopheles sp. [23]) was 86%. It also gave a mortality (Anopheles arabiensis [24]) of 90%, a Survival (Anopheles sp. [25]) of 2 days and an inhibition (Plasmodium berghei) of 80%. For the same sequence, the mortality (Culex quinquefasciatus [26]) was 100%, the mortality (Anopheles sp. [27]) was 100% and the MLC (Aedes aegypti [28]) was 2.5 ppm. For the same sequence, the LC50 (Anopheles gambiae [29]) was 0.0224 µg/mL, the MLC (Anopheles stephensi [30]) was 1 ppm and the mortality (Anopheles arabiensis [31]) was 50%. The LC50 (Aedes aegypti [32]) was 0.601 µg/mL.
